# Legend:
# sarcoma cells 1273 = settings: sarcoma cell line 1273, 72 hours
# Protocol: (§1) MCF7, MDA-MB 453 and MDA-MB 231 breast cancer cells were cultivated in DMEM, T47D breast cancer cells were cultivated in RPMI, GLC-1, GLC-2 and H460 R lung carcinoma cells were cultivated in IMDM, and sarcoma cells 1273 were cultivated in Häm's F12. All media were supplemented with 10% FCS, L-glutamine and antibiotics.
# (§2) An 3-([…])-2,5-diphenyltetrazolium bromide (MTT) assay was performed according to the manufacturer's protocol (Roche, Mannheim, Germany).
# [1] = test system: GLC-1, GLC-2 and H460 R lung carcinoma cells; settings: three lung carcinoma cell lines, 72 hours
# Protocol: as §1, §2
# [2] = test system: MCF7, MDA-MB 453, MDA-MB 231 and T47D breast cancer cells; assay: MTT cell growth assay, breast cancer cell lines; type: cell-based; settings: four breast cancer cell lines, treatment for 72 hours
# Protocol: as §1, §2
# [3] = test system: synovial sarcoma cell lines SYO-1, HS-SY-II, 1273/99, Fuji and CME-1; assay: MTT cell growth assay, synovial sarcoma cell lines; settings: five synovial sarcoma cell lines, 72 h
# [4] = test system: global H3K4 dimethylation; assay: Western blot of H3K4 dimethylation in breast cancer cells; type: cell-based; settings: 10 and or 30 μM, 24 h
# Protocol: Protein lysates were extracted from cells and blotted as described in Schulte et al. [Schulte, J. H. et al. (2009), see above] The membranes were incubated for 1-2 hours using the following antibodies and dilutions: α-LSD1 (Novus Biologicals) 1:1000; α-K4H3me2 (Abcam, Cambridge, UK) 1:1000; β-actin (Sigma-Aldrich, Hamburg, Germany) 1:5000; Her2/erbB2 (DAKO), 1:1000. […] Anal. Biochem., 295, 17-21].
# [5] = test system: liposarcoma cell lines FU-DDLS-1, MLS1765, T449, T778, MLS402, SW872; assay: MTT cell growth assay, liposarcoma cell lines; settings: six liposarcoma cell lines, 72 h
# LSD1 protein = LSD1 protein (Homo sapiens, UniProt O60341); settings: breast cancer cells, 10 and or 30 μM, 24 h
# Protocol: The membranes were incubated for 1-2 hours using the following antibodies and dilutions: α-LSD1 (Novus Biologicals) 1:1000; α-K4H3me2 (Abcam, Cambridge, UK) 1:1000; β-actin (Sigma-Aldrich, Hamburg, Germany) 1:5000; Her2/erbB2 (DAKO), 1:1000.
SMILES,"cell growth (MTT assay, % viability) (sarcoma cells 1273)","cell growth (MTT assay, viable cells) [1]","cell growth (MTT assay, viable cells) [2]","cell growth (MTT assay, viable cells) [3]",global H3K4 dimethylation (Western blot) [4],"cell growth (MTT assay, viable cells) [5]",LSD1 protein levels (Western blot) (LSD1 protein)
N[C@@H]1C[C@H]1c1ccccc1 (racemic) [tranylcypromine],impaired cell growth,impaired cell growth,impaired cell growth in a dose-dependent manner,impaired cell growth in these sarcoma cell lines in a concentration dependent manner,accumulation of H3K4 dimethylation,impaired cell growth in these sarcoma cell lines in a concentration dependent manner,–
C#CCN(C)CCCOc1ccc(Cl)cc1Cl [clorgyline],–,–,impaired cell growth in a dose-dependent manner,impaired cell growth in these sarcoma cell lines in a concentration dependent manner,accumulation of H3K4 dimethylation,impaired cell growth in these sarcoma cell lines in a concentration dependent manner,not affected
C#CCN(C)Cc1ccccc1 [pargyline],–,–,–,impaired cell growth in these sarcoma cell lines in a concentration dependent manner,–,impaired cell growth in these sarcoma cell lines in a concentration dependent manner,–
